Assay results reported in PMC11763264, “Antibacterial and Antifungal Activities of Linear and Cyclic Peptides Containing Arginine, Tryptophan, and Diphenylalanine” (Antibiotics, 2025).
≈ marks a conversion by molar mass, not a printed value. Where “and” joins values, the source holds several entries; their conditions need not be identical. Equal entries are not always repeated. Non-standard residues stand in square brackets, D forms with d. Residues, ends and D or L forms follow the SMILES beside them. Dip = N[C@H](C(=O)O)C(c1ccccc1)c1ccccc1

Tests used:
S. aureus (ATCC 29213) = test: microbe, parasite or virus in culture; type: cell-based, Staphylococcus aureus; details: ATCC 29213, 24 h
Method: (§1) The antibacterial activity of all ten synthesized linear and cyclic peptides was evaluated against MRSA (ATCC BAA-1556), S. aureus (ATCC 29213), E. faecium (ATCC 700221), S. pneumoniae (ATCC 51938), E. faecalis (ATCC 29212), B. subtilis (ATCC-6633), K. pneumoniae (ATCC BAA-1705), P. aeruginosa (ATCC 27883), and E. coli (ATCC 25922). Meropenem and daptomycin were used as positive controls for this study. Certain peptides are marked as “NT” (not tested) against specific bacterial strains based on initial screening data. […] The MIC was determined by micro-broth dilution protocol, where the minimal concentrations were determined to be in wells with no visible bacterial growth.
(§2) All bacterial experiments were carried out in a laminar flow hood (Labconco, Kansas City, MO, USA). The bacterial strains were cultured following the guidelines set by the Clinical Laboratory Standards Institute (CLSI). Antibacterial assays were performed using a standard microtiter dilution method as described in previous studies. The minimum inhibitory concentration (MIC) refers to the lowest peptide concentration that inhibits bacterial growth in wells with no visible bacterial growth. MIC was determined by micro-broth dilution. Bacteria were cultured overnight in 6 mL of Luria Broth (LB). A stock solution of the peptide was prepared in water and DMSO, and a test compound solution with a concentration of 256 µg/mL was made in LB. Meropenem, with a solubility of 8 mg/mL, was prepared as a stock solution at 4 mg/500 µL. An aliquot of the overnight bacteria culture was diluted in normal saline (NS, 1 mL) until achieving a 0.5 McFarland turbidity (1.5 × 10^8 bacterial cell CFU/mL). A 0.5 McFarland compared solution (60 µL) was added to Mueller Hinton Broth (MH) 8940 µL to generate a 1/150 dilution. A 200 µL test compound solution was added to the first well of a 96-well plate, and the remaining wells (2–12) were filled with 100 µL of MH media using a multi-channel pipette from a sterile reservoir. A concentration of […] of the tested peptides was prepared from a stock solution of the samples for testing in Muller−Hinton broth MH media. Peptides stock solution was dissolved in 5% DMSO in water, and the final concentration of DMSO in the first well of assay plate was 2.5% DMSO/H2O and diluted across the assay plate.
(§3) A 100 µL sample from well 1 was pipetted into well 2, and the solution was mixed thoroughly by pipetting up and down. Next, 100 µL was transferred from well 2 to well 3, followed by thorough mixing. This 2-fold serial dilution process continued through well 11, with no additions made to well 12. The final 100 µL from well 11 was discarded. After completing the serial dilution, each well (1–12) contained 100 µL of solution. The bacterial culture in MH media was vortexed and transferred to a sterile reservoir, from which 100 µL was added to each well using a 12-channel pipette. (Note: The dilutions were further diluted upon adding the bacterial solution; for example, the concentration in well 1 started at […] after the addition of the bacterial culture.) The plates were incubated overnight at 37 °C for 24 h. All experiments were performed in triplicate and repeated twice, with controls consisting of bacteria in MH media and positive controls of daptomycin or meropenem.

B. subtilis (ATCC-6633) = test: microbe, parasite or virus in culture; type: cell-based, Bacillus subtilis; details: ATCC-6633, 24 h
Method: as §1, §2, §3

[1] = test system: P. aeruginosa (ATCC 27883); test: microbe, parasite or virus in culture; type: cell-based, Pseudomonas aeruginosa; details: ATCC 27883, 24 h
Method: as §1, §2, §3

[2] = test system: C. parapsilosis (ATCC 22019); test: microbe, parasite or virus in culture; type: cell-based, Candida parapsilosis; details: ATCC 22019, 24 h
Method: (§4) The antifungal activity of all ten synthesized linear and cyclic peptides was evaluated against C. albicans (ATCC 60193), C. parapsilosis (ATCC 22019), and A. fumigatus (AF-293). Fluconazole and amphotericin B were used as positive controls for this study. The MIC was determined at concentrations in wells with no visible fungal growth.
In this study, C. albicans and C. parapsilosis were cultured on Yeast Peptone Dextrose (YPD) agar containing 1% w/v yeast extract, 2% w/v peptone, 2% w/v D-glucose, and 1.5% agar. A single colony from the agar was selected and cultured in Tryptone soy broth supplemented with 0.1% D-glucose, then incubated for 24 h at 37 °C. The cells were washed twice with PBS by centrifugation at 2000 RPM for 5 min. The pellet was resuspended in 5 mL of PBS, diluted in RPMI 1640 with L-glutamine, supplemented with 2% D-glucose, and the pH adjusted using HEPES buffer. The suspension was then incubated for 50 min at 35 °C to achieve a final cell concentration of 10^6 cells/mL.
Peptide concentrations of 50, 25, 12.5, 6.25, and 3.1 μg/mL were tested in triplicate and repeated twice. Each well of a 96-well plate was inoculated with the prepared inoculum suspension, which was diluted with RPMI media to a final volume of 200 μL per well. The control well received the same inoculum without any compound. The plates were incubated for 24 h at 37 °C. Fungal and microbial growth were visually observed in the control wells, and the minimum inhibitory concentration (MIC) was determined as the lowest concentration at which no growth was detected in the wells. Amphotericin B was used as a standard antifungal drug.

[3] = test system: C. parapsilosis and A. fumigatus; type: cell-based; details: span over the two fungi
Method: as §4
A. fumigatus (Af-293) was cultured on Sabouraud dextrose agar (SDA) (Lot #3431660, Oxoid) for 48–72 h at 35 °C to obtain fresh and mature colonies which reached the proper sporulation then used to prepare the inoculum. The colonies were covered with Phosphate-Buffered Saline (PBS) containing 0.025% Tween-20, scraped from the plate, and carefully collected into a sterile tube. The suspension was centrifuged at 3000 RPM for 5 min after the separation between conidia and hyphae. […]
Peptide concentrations of 50, 25, 12.5, 6.25, and 3.1 μg/mL were tested in triplicate. […] Fungal growth was visualized, and the minimum inhibitory concentration (MIC) was determined as the lowest peptide concentration, where no growth was observed. […]
Peptide concentrations of 50, 25, 12.5, 6.25, and 3.1 μg/mL were tested in triplicate and repeated twice. […] Fungal and microbial growth were visually observed in the control wells, and the minimum inhibitory concentration (MIC) was determined as the lowest concentration at which no growth was detected in the wells. […]

LLC-PK1 cells = details: cited from earlier work
Source text: We have previously reported in vitro cytotoxicity of the synthesized peptides in a range of mammalian cell lines, including human ovarian adenocarcinoma cells (SK-OV-3), human peripheral blood lymphoblast cells (CCRF-CEM), healthy human embryonic kidney cells (HEK-293), human mammary adenocarcinoma cells (MDA-MB-468), normal pig kidney epithelial cells (LLC-PK1), and human uterine sarcoma fibroblast cells (MES-SA).

N=C(N)NCCC[C@@H]1NC(=O)[C@H](C(c2ccccc2)c2ccccc2)NC(=O)[C@H](CCCNC(=N)N)NC(=O)[C@H](C(c2ccccc2)c2ccccc2)NC(=O)[C@H](CCCNC(=N)N)NC(=O)[C@H](C(c2ccccc2)c2ccccc2)NC(=O)[C@H](CCCNC(=N)N)NC(=O)[C@H](C(c2ccccc2)c2ccccc2)NC(=O)[C@H](CCCNC(=N)N)NC(=O)[C@H](C(c2ccccc2)c2ccccc2)NC1=O [[DipR]5] (cyclo([Dip]R[Dip]R[Dip]R[Dip]R[Dip]R))
MIC (S. aureus (ATCC 29213)): 3.1 µM (≈ 5.88 µg/mL)
MIC (B. subtilis (ATCC-6633)): 6.3 µM (≈ 12 µg/mL)
MIC [1]: 25 µM (≈ 47.4 µg/mL)
MIC [2]: 6.6 µM (≈ 12.5 µg/mL)
MIC values against C. parapsilosis and A. fumigatus [3]: 1.6–6.6 µM and 3.0–12.5 µg/mL
cytotoxicity against LLC-PK1 cells (LLC-PK1 cells): reduced cytotoxicity
